Article PMC11384632, “Protease-activated CendR peptides targeting tenascin-C: mitigating off-target tissue accumulation” (Drug Delivery and Translational Research, 2024)
Peptide text beside a SMILES is read from it. * marks the point of attachment. 5FAM = O=C1OC2(c3ccc(O)cc3Oc3cc(O)ccc32)c2ccc(C(=O)*)cc21; Ahx = NCCCCCC(=O)O

System: orthotopic WT-GBM-bearing nude mice
Assay: Biodistribution of monomeric FAM-labeled peptides in WT-GBM mice (anti-FAM DAB immunohistochemistry)
Assay type: in vivo
Details: 200 µg i.v., 1 h circulation, perfused, anti-FAM DAB staining, qualitative, n = 3, Fig. 6d
Text: Whereas polyvalent targeting systems, such as bacteriophages and AgNPs used in previous sections, exploit multivalent interactions to enhance specificity and binding efficiency, monovalent targeting systems rely on single ligand-receptor interactions for targeted drug delivery. The choice between these two approaches depends on affinity of the targeting ligand and the pharmacokinetic properties of the therapeutic agent. We next studied in vivo biodistribution of monomeric FAM-labeled SKLG, PL3, and scrambled PL3 control (scrPL3) peptides in WT-GBM tumor-bearing mice. The mice were dosed with FAM-labeled peptides followed by perfusion, tissue collection, sectioning, and detection of the peptides using immunohistochemistry with anti-FAM antibodies.
Fig. 6 Biodistribution of monomeric FAM-labeled peptides in WT-GBM mice. Orthotopic GBM-bearing nude mice were i.v. injected with FAM-labeled scrambled PL3 control (scrPL3), PL3 or SKLG peptides. After 1 h of circulation the mice were anesthetized and perfused. Organs were harvested, sectioned, and parallel sections were immunostained with hematoxylin & eosin (H&E) staining or anti-FAM 3, 3'-diaminobenzidine (DAB) staining. (a) H&E of WT-GBM tumor-bearing brain tissue sections. (b) DAB staining of WT-GBM tumor region in the brain. (c) H&E staining of lung tissue sections. (d) DAB staining of lung tissue sections. […]

For CC(C)C[C@H](NC(=O)[C@H](CCCNC(=N)N)NC(=O)CNC(=O)[C@H](CCCNC(=N)N)NC(=O)CNC(=O)[C@H](C)NC(=O)[C@H](CCCNC(=N)N)NC(=O)CCCCCNC(=O)c1ccc2c(c1)C(=O)OC21c2ccc(O)cc2Oc2cc(O)ccc21)C(=O)N[C@H](C(=O)O)C(C)C [scrPL3] ({5FAM-Ahx}-RAGRGRLV-OH), the “accumulation of FAM-labeled peptide in pulmonary tissue” value was “only a background signal”.
